According to patent US20140205670A1, “STABLE SOLID PREPARATIONS” (TAKEDA PHARMACEUTICAL COMPANY LIMITED, priority 2002, published 2014):

Experiment: Stability Test of Amorphous Lansoprazole R-Isomer (compatibility with basic substances, appearance change)
Type: physicochemical
Conditions: blending ratio A/base 1/1 (1/0 for No Addition)
Experimental: (1) 100 mg of amorphous lansoprazole R-isomer was weighed precisely under low humidity environment, and put in a transparent glass bottle. Subsequently, 100 mg of basic substance as a stabilizer of basic inorganic salt shown below was weighed precisely under low humidity environment, and placed in the bottle containing amorphous lansoprazole R-isomer. Then, the bottle was capped, and shaken slightly with hand to mix.
[1] magnesium carbonate MgCO3 [2] calcium carbonate CaCO3 [3] magnesium oxide MgO [4] magnesium hydroxide Mg (OH)2 [5] no basic substance (2) The prepared samples were stored under the condition of 40° C./75% RH (open) for 5 days. Color tones were named and color codes were numbered based on International Color Manual so as to estimate the appearance change of samples everyday. At the end of experiment, the stability was judged by comparing the color tone with that of the sample stored at 5° C. as initial sample. In addition, A represents amorphous lansoprazole R-isomer in Table 2.

With Cc1c(OCC(F)(F)F)ccnc1C[S@@+]([O-])c1nc2ccccc2[nH]1 [No Addition] the “color tone, Storage conditions initial (5° C. 5 days)” value (100 mg amorphous lansoprazole R-isomer (A) + 100 mg basic substance, stored at 5° C. as initial sample) was “pale greenish”, the “appearance change after 40° C./75% RH 5 days compared with initial sample (5° C.)” value (40° C./75% RH (open), 5 days) was “(changed)” and the “color tone, Storage conditions 40° C./75% RH 5 days” value (40° C./75% RH (open), 5 days) was “pale yellow”.
